Several values for one entry are separate records, joined by “and”; a condition that tells them apart may be missing. Equal values may be shown once.

The test system of data set [1] is C. neoformans var. grubii strain ATCC 208821. Kind of data set: Antimicrobial growth inhibition (CO-ADD), C. neoformans. In kind it is cell-based, Cryptococcus neoformans. As to conditions: 32 µg/mL, duplicate (n = 2) values. The protocol:
(§1) Compounds 1−3 and 5−12 were assayed against a selection of medically important pathogenic microorganisms (MRSA, E. coli, K. pneumoniae, A. baumanii, P. aeruginosa, C. albicans, C. neoformans), Table 4. […] To the best of our knowledge this compound had not been tested against any drug resistant strain of Gram-positive bacterium until this study.
(§2) The antimicrobial activity testing was performed by the Community for Antimicrobial Drug Discovery (CO-ADD). Compounds were assayed against a range of both Gram negative and Gram positive bacteria (see Supplementary Materials S3) including methicillin-resistant Staphylococcus aureus (MRSA) (G+), Escherichia coli (G-), Klebsiella pneumoniae (G-), Acinetobacter baumannii (G-), Pseudomonas aeruginosa (G-) together with two species of fungus (Candida albicans and Cryptococcus neoformans).
(§3) S3. Antimicrobial activity testing methodology
The compounds submitted to CO-ADD were evaluated in duplicate (n = 2) against seven microorganisms (five bacteria and two fungi) at a concentration of 32 µg/mL in a 384-well, non-binding surface plate (NBS) for each bacterial/fungal strain, keeping the final DMSO concentration to a maximum of 1% DMSO. All bacteria were cultured in cation-adjusted […]
Fungal strains were cultured for 3 days on Yeast Extract-Peptone Dextrose (YPD) agar at 30 °C. A yeast suspension of 1 x 10^6 to 5 x 10^6 CFU/mL (as determined by OD530) was prepared from five colonies. The suspension was subsequently diluted and added to each well of the compound-containing plates giving a final cell density of fungi suspension of 2.5 x 10^3 CFU/mL and a total volume of 50 µL. All plates were covered and incubated at 35 °C for 24 h without shaking. […]
Growth inhibition of C. albicans was determined measuring absorbance at 530 nm (OD530), while the growth inhibition of C. neoformans was determined measuring the difference in absorbance between 600 and 570 nm (OD600-570), after the addition of resazurin (0.001% final concentration) and incubation at 35 °C for an additional 2 h. The absorbance was measured using a Biotek Synergy HTX plate reader. The percentage of growth inhibition was calculated for each well, using negative control (medium only) and positive control (bacteria without inhibitors) on the same plate as the references. The significance of inhibition values was determined by modified Z-scores, calculated using the median and MAD of the samples (no controls) on the same plate. Samples with inhibition value above 80% and Z-score above 2.5 for either replicate (n = 2 on different plates) were classed as actives.
(§4) Colistin and vancomycin were used as positive bacterial inhibitor standards for Gram-negative and Gram-positive bac-teria, respectively. Fluconazole was used as a positive fungal inhibitor standard for C. albicans and C. neoformans. The antibiotics were provided in four concentrations, with two above and two below its MIC value, and plated into the first eight wells of column 23 of the 384-well NBS plates. The quality control (QC) of the assays was determined by the antimicrobial controls and the Z’-factor (using positive and negative controls). Each plate was deemed to fulfil the qual- […]
(§5) full growth inhibition at their highest concentration, and no growth inhibition at their lowest concentration. The seven […]
(§6) test microorganisms were Staphylococcus aureus MRSA (ATCC 43300), Escherichia coli (ATCC 25922), Klebsiella pneu-moniae (ATCC 700603), Acinetobacter baumanii (ATCC19606), Pseudomonas aeruginosa (ATCC 27853), Candida albicans (ATCC 90028) and Cryptococcus neoformans var. grubii (H99; ATCC 208821).
(§7) S4. Anthelmintic activity testing methodology
Dose-response evaluations were carried out to estimate the half-maximal inhibitory concentrations (IC50 values) for compounds against Haemonchus contortus (Haecon-5 strain) exsheathed third-stage larvae (xL3s). H. contortus were maintained in experimental sheep and procured in accordance with the institutional animal ethics guidelines and the […]

For data set [2], the system named is E. Coli (G-) strain ATCC 25922. Put plainly: Antimicrobial growth inhibition (CO-ADD), E. coli. In kind it is cell-based, Escherichia coli. As to conditions: for % inhibition E. coli: 32 µg/mL; for % inhibition E. coli / inhibition at 32 µg/mL: duplicate (n = 2) values; for inhibition at 32 µg/mL / MIC: Escherichia coli; for inhibition at 32 µg/mL: ATCC25922, 32 µg/mL, read-out: % inhibition E. coli; for MIC: ATCC25922, ATCC 25922, MIC = concentration at which growth inhibited by ≥80%, read-out: MIC E. coli. The method, then: as §1, §2, §3
(§8) The compounds submitted to CO-ADD were evaluated in duplicate (n = 2) against seven microorganisms (five bacteria and two fungi) at a concentration of 32 µg/mL in a 384-well, non-binding surface plate (NBS) for each bacterial/fungal strain, keeping the final DMSO concentration to a maximum of 1% DMSO. All bacteria were cultured in cation-adjusted Mueller-Hinton broth (CAMHB) at 37 °C overnight. A sample of each culture was then diluted 40-fold in fresh broth and incubated at 37 °C for 1.5-3 h. The resultant mid-log phase cultures were diluted (CFU/mL measured by OD600), then added to each well of the compound containing plates, giving a cell density of 5x10^5 CFU/mL and a total volume of 50 µL. All the plates were covered and incubated at 37 °C for 18 h without shaking. […] Inhibition of bacterial growth was determined measuring absorbance at 600 nm (OD600) using a Tecan M1000 Pro mon-ochromator plate reader. […]
(§9) 2 h. The absorbance was measured using a Biotek Synergy HTX plate reader. The percentage of growth inhibition was calculated for each well, using negative control (medium only) and positive control (bacteria without inhibitors) on the same plate as the references. The significance of inhibition values was determined by modified Z-scores, calculated using the median and MAD of the samples (no controls) on the same plate. Samples with inhibition value above 80% and Z-score above 2.5 for either replicate (n = 2 on different plates) were classed as actives.
as §4, §5, §6, §7
(§10) Dose-response evaluations were carried out to estimate the half-maximal inhibitory concentrations (IC50 values) for compounds against Haemonchus contortus (Haecon-5 strain) exsheathed third-stage larvae (xL3s). H. contortus were maintained in experimental sheep and procured in accordance with the institutional animal ethics guidelines and the regulations of Australia (permit no. 1714374; University of Melbourne). Immediately prior to use, third-stage larvae (L3s) were exsheathed and sterilised by incubation in 0.15% (v/v) bleach at 38 °C for 20 min, followed by washes in […]

Data set [3] is described as follows: Cytotoxicity assay (CO-ADD). In kind it is cell-based. As to conditions: human, human embryonic kidney cells.
The test system of data set [4] is C. neoformans var. grubii strain ATCC 208821. Kind of data set: Antimicrobial growth inhibition (CO-ADD), C. neoformans. In kind it is cell-based. As to conditions: Cryptococcus neoformans, ATCC208821; var. grubii ATCC 208821; read-out: MIC C. neoformans.
The test system of data set [5] is A. baumannii (G-) strain ATCC 19606. Kind of data set: Antimicrobial growth inhibition (CO-ADD), A. baumannii. In kind it is cell-based, Acinetobacter baumannii. As to conditions: for % inhibition A. baumannii: 32 µg/mL; for MIC: ATCC19606, ATCC 19606, read-out: MIC A. baumannii. The method, then: as §1, §2, §3, §8, §9, §4, §5, §6, §7, §10
Data set [6] has as its system MRSA (G+) strain ATCC 43300. Put plainly: Antimicrobial growth inhibition (CO-ADD), MRSA. In kind it is cell-based, Staphylococcus aureus. As to conditions: for MIC: ATCC 43300, MIC = concentration at which growth inhibited by ≥80%, range 0.25−32 µg/mL, read-out: MIC MRSA. The method, then: as §1, §2, §3, §8, §9, §4, §5, §6, §7, §10
Data set [7] deals with P. auruginosa (G-) strain ATCC 27853. Put plainly: Antimicrobial growth inhibition (CO-ADD), P. aeruginosa. In kind it is cell-based, Pseudomonas aeruginosa. As to conditions: for % inhibition P. aeruginosa: 32 µg/mL; for MIC: ATCC27853, ATCC 27853, read-out: MIC P. aeruginosa. The method, then: as §1, §2, §3, §8, §9, §4, §5, §6, §7, §10
Data set [8] concerns K. pneumoniae (G-) strain ATCC 700603. Put plainly: Antimicrobial growth inhibition (CO-ADD), K. pneumoniae. As to conditions: for % inhibition K. pneumoniae: 32 µg/mL; for % inhibition K. pneumoniae / inhibition at 32 µg/mL: duplicate (n = 2) values; for inhibition at 32 µg/mL / MIC: Klebsiella pneumoniae; for inhibition at 32 µg/mL: ATCC700603, 32 µg/mL, read-out: % inhibition K. pneumoniae; for MIC: ATCC700603, ATCC 700603, read-out: MIC K. pneumoniae. In kind it is cell-based, Klebsiella pneumoniae. The protocol: as §1, §2, §3, §8, §9, §4, §5, §6, §7, §10

Data set [9] deals with human red blood cells. Put plainly: Haemolysis assay (CO-ADD). In kind it is cell-based.
Setting [10] is: 32 µg/mL, duplicate (n = 2) values.

A word on the inhibition: it is the relative decrease from the control value, in per cent. What is called MIC is the lowest concentration found to suppress growth. By CC50 is commonly meant the concentration giving 50% cytotoxicity. High values mean better tolerance by the cells, low ones harm at low concentration. As to `COc1c(Br)cc(CC#N)c(O)c1Br` [Compound 8, 2-(3,5-dibromo-2-hydroxy-4-methoxyphenyl)acetonitrile], in data set [1], the “% inhibition C. neoformans” value is 11.1% and 4.0%. In data set [2], the “% inhibition E. coli” value was 16.9%. Moreover, the inhibition at 32 µg/mL turned out to be 12.7% in [2]; 11% in data set [5] (Acinetobacter baumannii, ATCC19606, 32 µg/mL, duplicate (n = 2) values, read-out: % inhibition A. baumannii); 7.6% in data set [6] (Staphylococcus aureus, 32 µg/mL, duplicate (n = 2) values, read-out: % inhibition MRSA); 11.2% in data set [7] (Pseudomonas aeruginosa, ATCC27853, 32 µg/mL, duplicate (n = 2) values, read-out: % inhibition P. aeruginosa); 10.3% in [8]. Further, the minimal inhibitory concentration (MIC) in data set [2], in data set [4], in data set [5] (Acinetobacter baumannii), in [6] (Staphylococcus aureus), in [7] (Pseudomonas aeruginosa) and in data set [8] was above 32 mg/L each time. In addition, in [3], the CC50 was above 32 mg/L. Moreover, the “% inhibition A. baumannii” value in data set [5] (duplicate (n = 2) values) amounted to 7.5%. Further, the “% inhibition MRSA” value in data set [6] (setting [10]) turned out to be 8.5%. Also, the “% inhibition P. aeruginosa” value in data set [7] (duplicate (n = 2) values) is 6.8%. The “% inhibition K. pneumoniae” value in data set [8] is 12.5%. The “Haemolysis (HC10)” value in data set [9] is recorded as above 32 µg/mL.

As for `COC1(OC)C(Br)=CC(O)(CC(N)=O)C=C1Br` [Compound 6, 2-(3,5-dibromo-1-hydroxy-4,4-dimethoxycyclohexa-2,5-dien-1-yl)acetamide], the “% inhibition C. neoformans” value in data set [1] is 11.1% and 2.0%. Besides, the “% inhibition E. coli” value in data set [2] turned out to be 15.6%. The inhibition at 32 µg/mL was determined as 14.6% in [2] and 12.3% in data set [8]. The MIC in [2], in data set [4], in data set [5] (Acinetobacter baumannii), in data set [6] (Staphylococcus aureus), in data set [7] (Pseudomonas aeruginosa) and in data set [8] was above 32 mg/L throughout. The compound further had a CC50 in data set [3] above 32 mg/L. Besides, in data set [5] (duplicate (n = 2) values), the “% inhibition A. baumannii” value is 2.3% and 9.7%. Besides, the “% inhibition MRSA” value in data set [6] (setting [10]) is 3.3% and 7.0%. The “% inhibition P. aeruginosa” value in data set [7] (duplicate (n = 2) values) is 1.1% and 9.7%. Further, the “% inhibition K. pneumoniae” value in data set [8] stood at 6.4%. Also, in [9], the “Haemolysis (HC10)” value was above 32 µg/mL.
